Laboratory results taken from patent publication US9029325B2, “Amylin analogues and pharmaceutical compositions thereof” (Novo Nordisk A/S, priority 2011, dated 2015).
Starred links: 1 amine or outer side, 2 acyl side, 3 side chain; linkers in the order of their positions; H or OH if unused. Positions of bridges follow the written chain, without caps; N, C: chain ends. Non-standard residues stand in square brackets, D forms with d. Residues, ends and D or L forms follow the SMILES beside them. Groups on a side chain read outwards from the residue. *: point of attachment. C20 diacid = O=C(O)CCCCCCCCCCCCCCCCCCC(=O)*; C18 diacid = O=C(O)CCCCCCCCCCCCCCCCC(=O)*; γGlu = O=C(O)[C@H](CCC(=O)[*:2])N[*:1]; Orn = NCCC[C@H](N)C(=O)O; AEEA = NCCOCCOCC(=O)O

Assay: Assay (I) efficacy testing on appetite (food intake), ad libitum fed rat model
Assay type: in vivo, Sprague Dawley (SD) rats
Conditions: 3 nmol/kg
Method in brief: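 Ad libitum fed SD rats (200-250 g) on a reversed light cycle, housed individually, received a single 0.01-3 mg/kg dose ip, po or sc just before lights-off. Individual food intake recorded hourly for 7 h, then at 24 h and sometimes 48 h, versus vehicle; Grubbs outliers excluded.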

Structure (SMILES) | Food intake reduction 0-24 h 3 nmol/kg (%) | Food intake reduction 24-48 h 3 nmol/kg (%)
CC[C@H](C)[C@H](NC(=O)[C@@H]1CCCN1C(=O)CNC(=O)[C@H](Cc1ccccc1)NC(=O)[C@H](CC(N)=O)NC(=O)[C@H](CC(N)=O)NC(=O)[C@H](CO)NC(=O)[C@H](CO)NC(=O)[C@H](Cc1c[nH]cn1)NC(=O)[C@H](Cc1c[nH]cn1)NC(=O)[C@H](CC(C)C)NC(=O)[C@H](Cc1ccccc1)NC(=O)[C@H](CCC(=O)O)NC(=O)[C@H](C)NC(=O)[C@H](CC(C)C)NC(=O)[C@H](CCCNC(=N)N)NC(=O)[C@H](CCC(N)=O)NC(=O)[C@@H](NC(=O)[C@H](C)NC(=O)[C@@H]1CSSC[C@H](NC(=O)[C@H](CCCCN)NC(=O)[C@H](CCC(=O)O)NC(=O)CC[C@H](NC(=O)CCCCCCCCCCCCCCCCCCC(=O)O)C(=O)O)C(=O)N[C@@H](CC(N)=O)C(=O)N[C@@H]([C@@H](C)O)C(=O)N[C@@H](C)C(=O)N[C@@H]([C@@H](C)O)C(=O)N1)[C@@H](C)O)C(=O)N[C@@H](CC(C)C)C(=O)N1CCC[C@H]1C(=O)N1CCC[C@H]1C(=O)N[C@H](C(=O)N[C@@H](CC(N)=O)C(=O)N[C@H](C(=O)NCC(=O)N[C@@H](CO)C(=O)N[C@@H](Cc1c[nH]cn1)C(=O)N[C@H](C(=O)N[C@@H](Cc1ccc(O)cc1)C(N)=O)[C@@H](C)O)C(C)C)[C@@H](C)O [compound 56] ({C20 diacid-γGlu}-EKCNTATCATQRLAEFLHHSSNNFGPILPPTNVGSHTY-NH2; disulfide 3-8) | 46 | 21
CC[C@H](C)[C@H](NC(=O)[C@@H]1CCCN1C(=O)CNC(=O)[C@H](Cc1ccccc1)NC(=O)[C@H](CC(N)=O)NC(=O)[C@H](CC(N)=O)NC(=O)[C@H](CO)NC(=O)[C@H](CO)NC(=O)[C@H](Cc1c[nH]cn1)NC(=O)[C@H](CCCNC(=N)N)NC(=O)[C@H](CC(C)C)NC(=O)[C@H](Cc1ccccc1)NC(=O)[C@H](CCC(=O)O)NC(=O)[C@H](C)NC(=O)[C@H](CC(C)C)NC(=O)[C@H](CCCNC(=N)N)NC(=O)[C@H](CCC(N)=O)NC(=O)[C@@H](NC(=O)[C@H](C)NC(=O)[C@@H]1CSSC[C@H](NC(=O)[C@H](CCCCN)NC(=O)[C@H](Cc2c[nH]cn2)NC(=O)CC[C@H](NC(=O)CCCCCCCCCCCCCCCCC(=O)O)C(=O)O)C(=O)N[C@@H](CC(N)=O)C(=O)N[C@@H]([C@@H](C)O)C(=O)N[C@@H](C)C(=O)N[C@@H]([C@@H](C)O)C(=O)N1)[C@@H](C)O)C(=O)N[C@@H](CC(C)C)C(=O)N1CCC[C@H]1C(=O)N1CCC[C@H]1C(=O)N[C@H](C(=O)N[C@@H](CC(N)=O)C(=O)N[C@H](C(=O)NCC(=O)N[C@@H](CO)C(=O)N[C@@H](Cc1c[nH]cn1)C(=O)N[C@H](C(=O)N[C@@H](Cc1ccc(O)cc1)C(N)=O)[C@@H](C)O)C(C)C)[C@@H](C)O [compound 71] ({C18 diacid-γGlu}-HKCNTATCATQRLAEFLRHSSNNFGPILPPTNVGSHTY-NH2; disulfide 3-8 (inferred); C-terminus assumed) | 10 | 0
CC[C@H](C)[C@H](NC(=O)[C@H](CCCCNC(=O)COCCOCCNC(=O)COCCOCCNC(=O)CC[C@H](NC(=O)CCCCCCCCCCCCCCCCC(=O)O)C(=O)O)NC(=O)CNC(=O)[C@H](Cc1ccccc1)NC(=O)[C@H](CC(N)=O)NC(=O)[C@H](CC(N)=O)NC(=O)[C@H](CO)NC(=O)[C@H](CO)NC(=O)[C@H](Cc1c[nH]cn1)NC(=O)[C@H](Cc1c[nH]cn1)NC(=O)[C@H](CC(C)C)NC(=O)[C@H](Cc1ccccc1)NC(=O)[C@H](CCC(=O)O)NC(=O)[C@H](C)NC(=O)[C@H](CC(C)C)NC(=O)[C@H](CCCNC(=N)N)NC(=O)[C@H](CCC(N)=O)NC(=O)[C@@H](NC(=O)[C@H](C)NC(=O)[C@@H]1CSSC[C@H](NC(=O)[C@@H](N)CCCCN)C(=O)N[C@@H](CC(N)=O)C(=O)N[C@@H]([C@@H](C)O)C(=O)N[C@@H](C)C(=O)N[C@@H]([C@@H](C)O)C(=O)N1)[C@@H](C)O)C(=O)N[C@@H](CC(C)C)C(=O)N1CCC[C@H]1C(=O)N1CCC[C@H]1C(=O)N[C@H](C(=O)N[C@@H](CC(N)=O)C(=O)N[C@H](C(=O)NCC(=O)N[C@@H](CO)C(=O)N[C@@H](CC(N)=O)C(=O)N[C@H](C(=O)N[C@@H](Cc1ccc(O)cc1)C(N)=O)[C@@H](C)O)C(C)C)[C@@H](C)O [compound 73] (H-KCNTATCATQRLAEFLHHSSNNFGK([AEEA-AEEA-γGlu-C18 diacid])ILPPTNVGSNTY-NH2; disulfide 2-7 (inferred); N-terminus and C-terminus assumed) | 29 | 2
CC[C@H](C)[C@H](NC(=O)[C@@H]1CCCN1C(=O)CNC(=O)[C@H](Cc1ccccc1)NC(=O)[C@H](CC(N)=O)NC(=O)[C@H](CCC(N)=O)NC(=O)[C@H](CO)NC(=O)[C@H](CO)NC(=O)[C@H](Cc1c[nH]cn1)NC(=O)[C@H](Cc1c[nH]cn1)NC(=O)[C@H](CC(C)C)NC(=O)[C@H](Cc1ccccc1)NC(=O)[C@H](CCC(=O)O)NC(=O)[C@H](C)NC(=O)[C@H](CC(C)C)NC(=O)[C@H](CCCNC(=N)N)NC(=O)[C@H](CCC(N)=O)NC(=O)[C@@H](NC(=O)[C@H](C)NC(=O)[C@@H]1CSSC[C@H](NC(=O)[C@H](CCCCN)NC(=O)CC[C@H](NC(=O)CCCCCCCCCCCCCCCCCCC(=O)O)C(=O)O)C(=O)N[C@@H](CC(N)=O)C(=O)N[C@@H]([C@@H](C)O)C(=O)N[C@@H](C)C(=O)N[C@@H]([C@@H](C)O)C(=O)N1)[C@@H](C)O)C(=O)N[C@@H](CC(C)C)C(=O)N1CCC[C@H]1C(=O)N1CCC[C@H]1C(=O)N[C@H](C(=O)N[C@@H](CC(N)=O)C(=O)N[C@H](C(=O)NCC(=O)N[C@@H](CO)C(=O)N[C@@H](Cc1c[nH]cn1)C(=O)N[C@H](C(=O)N[C@@H](Cc1ccc(O)cc1)C(N)=O)[C@@H](C)O)C(C)C)[C@@H](C)O [compound 117] ({C20 diacid-γGlu}-KCNTATCATQRLAEFLHHSSQNFGPILPPTNVGSHTY-NH2; disulfide 2-7 (inferred); C-terminus assumed) | 50 | 35
CC[C@H](C)[C@H](NC(=O)[C@@H]1CCCN1C(=O)CNC(=O)[C@H](Cc1ccccc1)NC(=O)[C@H](CC(N)=O)NC(=O)[C@H](CC(N)=O)NC(=O)[C@H](CO)NC(=O)[C@H](CO)NC(=O)[C@H](CCCNC(=N)N)NC(=O)[C@H](Cc1c[nH]cn1)NC(=O)[C@H](CC(C)C)NC(=O)[C@H](Cc1ccccc1)NC(=O)[C@H](CCC(=O)O)NC(=O)[C@H](C)NC(=O)[C@H](CC(C)C)NC(=O)[C@H](CCCNC(=N)N)NC(=O)[C@H](CCC(N)=O)NC(=O)[C@@H](NC(=O)[C@H](C)NC(=O)[C@@H]1CSSC[C@H](NC(=O)[C@H](CCCN)NC(=O)[C@@H](CCCNC(=N)N)NC(=O)[C@@H](CCCNC(=N)N)NC(=O)COCCOCCNC(=O)COCCOCCNC(=O)CC[C@H](NC(=O)CCCCCCCCCCCCCCCCC(=O)O)C(=O)O)C(=O)N[C@@H](CC(N)=O)C(=O)N[C@@H]([C@@H](C)O)C(=O)N[C@@H](C)C(=O)N[C@@H]([C@@H](C)O)C(=O)N1)[C@@H](C)O)C(=O)N[C@@H](CC(C)C)C(=O)N1CCC[C@H]1C(=O)N1CCC[C@H]1C(=O)N[C@H](C(=O)N[C@@H](CC(N)=O)C(=O)N[C@H](C(=O)NCC(=O)N[C@@H](CO)C(=O)N[C@@H](CC(N)=O)C(=O)N[C@H](C(=O)N[C@@H](Cc1ccc(O)cc1)C(N)=O)[C@@H](C)O)C(C)C)[C@@H](C)O [compound 120] ({C18 diacid-γGlu-AEEA-AEEA}-[dR][dR][Orn]CNTATCATQRLAEFLHRSSNNFGPILPPTNVGSNTY-NH2; disulfide 4-9 (inferred); C-terminus assumed) | 53 | 2
